The subject of data set [1] is rats with severe Sugen-hypoxia-induced pulmonary hypertension. As to the kind of experiment: Right ventricular systolic pressure (RVSP) after inhaled aerosol in Sugen-hypoxia pulmonary hypertension rats. Format: in vivo, Sprague Dawley rats. The protocol:
Stock SNOAC was prepared by reacting an appropriate amount of sodium nitrite and NAC in water just before use. The pH was adjusted to 7.0 with alkaline solution and then transferred to an Aeroneb Nebulizer (Kent Scientific). Severe PH was induced in Sprague Dawley rats by subcutaneous injection of vascular endothelial growth factor receptor antagonist Sugen 5416 followed by exposure to hypoxia (10% O2) for 3 weeks and normoxia for 4 weeks. Right ventricular systolic pressure (RVSP) was measured invasively in a closed-chest, spontaneously breathing rat model as an indicator of pulmonary arterial pressure. Rats were anesthetized with 1.5% isoflurane in air with a flow rate of 2 L/min. A blood pressure catheter was inserted into the right ventricle through the jugular vein, and baseline RVSP was measured. After the pressure stabilized, the aerosolized drug was introduced into the isoflurane line for 5 minutes.

Data set [2] can be described thus: Plasma and organ RSNOs after oral gavage of nitrite in neutral NAC. The conditions noted are these: single agent alone, nitrite 1.5 mg/kg, NAC 50 mg/kg. Format: in vivo, rats. The protocol: […] BP was measured by femoral intra-arterial catheterization. Chronic studies were carried out in an L-NAME (eNOS inhibitor) induced hypertensive mouse model. Mice were randomized into five groups 1) control, 2) control L-NAME (0.1 g/L), 3) L-NAME+nitrite (20 mg/L), 4) L-NAME+nitrite (10 mg/L)+NAC (0.5 g/L), 5) L-NAME+nitrite (20 mg/L)+NAC 0.5 g/L) in drinking water for 2 months. Plasma S-nitrosothiols blood pressure (tail cuff method), arterial stiffness (Doppler method) were determined.

Data set [3] deals with normotensive rats. As to the kind of experiment: Mean arterial pressure after oral gavage in normotensive rats. In kind it is in vivo. The conditions noted are these: 0.5 mL.
Protocol: The mean arterial pressure (MAP) was continually monitored.
The MAP in rats was measured as described for sublingual administration. After baseline blood pressure was measured, 0.5 mL of nitrite alone, NAC alone, or the nitrite−NAC mixture was administered by gavage.
Data set [4] concerns normotensive rats. The data set can be described thus: Femoral mean arterial pressure after sublingual administration in normotensive rats. The conditions noted are these: 0.2, 0.4 or 0.8 mg nitrite/kg with 10 mg NAC. Format: in vivo.
Protocol: Normotensive rats were anesthetized with isoflurane. The femoral artery was catheterized with a Micro-Tip Catheter Transducer (AD Instruments, Houston, TX) for monitoring of blood pressure. Once the baseline blood pressure was stabilized, at approximately 30 minutes, rats were treated sublingually with 50 μL of SNOAC generated by reacting 0.2 mg, 0.4 mg, or 0.8 mg nitrite/kg body weight with a fixed concentration of 10 mg NAC (FIG. 5). Control rats were treated with nitrite or NAC alone. The mean arterial pressure (MAP) was continually monitored.
The subject of data set [5] is Spontaneously Hypertensive Rats (SHR). The data set can be described thus: Tail-cuff MAP in SHR and WKY rats, drinking water. The conditions noted are these: NAC 1.2 g/L, nitrite 60 mg/L in drinking water, end of 3 months, versus SHR control. Format: in vivo. Here is the method: SHR rats are a well-established model used to study essential hypertension. Normotensive Wistar Kyoto rats (WKY) were used as a control group. Rats were fed with NAC (1.2 g/L), nitrite (60 mg/L), or a combination of the two in drinking water for 3 months. Mean arterial blood pressure was measured by the tail-cuff method once each month.

For data set [6], the system named is mice with L-NAME-induced systemic hypertension. The data set can be described thus: L-NAME-induced systemic hypertension in mice, drinking water. In kind it is in vivo. The conditions noted are these: L-NAME-treated mice, NAC 0.5 g/L or nitrite 20 mg/L alone, 2 months. The protocol:
L-NAME (N-nitro-L-arginine methyl ester) is an inhibitor of eNOS enzyme activity. Administering L-NAME in the drinking water of animals induces systemic hypertension by decreasing NO synthesis in blood vessels. In this study, mice were fed L-NAME alone (0.1 g/L) or L-NAME+NAC (0.5 g/L), L-NAME+nitrite (20 mg/L), or L-NAME+NAC with one of two nitrite doses (i.e., 10 mg/L or 20 mg/L) in drinking water for 2 months. Mean arterial blood pressure was measured by the tail-cuff method (Kent Scientific, Torrington, CT).
Acute doses of nitrite (0.1 to 1 mg/kg B. wt.) or NAC (10 to 50 mg/kg B. wt.) alone or in combination were administered sublingually or by oral gavage to anesthetized Wistar rats and blood collected at varying time points for measurement of total plasma SNOs by chemiluminescence method. BP was measured by femoral intra-arterial catheterization. Chronic studies were carried out in an L-NAME (eNOS inhibitor) induced hypertensive mouse model. Mice were randomized into five groups 1) control, 2) control L-NAME (0.1 g/L), 3) L-NAME+nitrite (20 mg/L), 4) L-NAME+nitrite (10 mg/L)+NAC (0.5 g/L), 5) L-NAME+nitrite (20 mg/L)+NAC 0.5 g/L) in drinking water for 2 months. Plasma S-nitrosothiols blood pressure (tail cuff method), arterial stiffness (Doppler method) were determined.

A further data set concerns eNOS^-/- mice. The data set can be described thus: Tail-cuff MAP in eNOS-/- hypertensive mice, drinking water. In kind it is in vivo. The conditions noted are these: nitrite 50 mg/L, NAC 500 mg/L in drinking water for 2 months, versus eNOS-/- control.
Data set [7] is described as follows: Plasma S-nitrosothiols and nitrite after sublingual SNOAC in rats. In kind it is in vivo. The protocol:
Because the chemicals cannot be placed in the buccal cavity of experimental animals, SNOAC was prepared in a test tube just before use and then placed in the sublingual space. Normotensive rats were anesthetized and the femoral artery was cannulated to collect blood. Stock SNOAC at 30 μmoles/mL was prepared by reacting sodium nitrite with NAC at the molar ratio of 1:2 in water just before use. It is believed that all of the nitrite is converted to SNOAC under these conditions. After baseline blood samples were collected in heparinized tubes, approximately 50 μL of SNOAC solution (0.4 mg nitrite and 1.87 mg NAC/kg body weight) was placed under the tongue of anesthetized rats. Blood was collected at 10-minute intervals. The plasma was separated, and nitrite and total S-nitrosothiols in plasma were determined. […] There was no change in plasma nitrite levels.
In this study, the sublingual and buccal cavity medication route of SNOAC generation and administration for acute dosing was first examined. A dose of NAC and sodium nitrite with 25 μL of water was placed under the tongue of mice or rats. Specifically, a dose of 0.1 mg of nitrite and 10 mg of NAC was placed under the tongue of the subject, blood was collected varying time points, and total S-nitrosothiols (SNO) were measured by a chemiluminescence method. […]

In data set [8] the test system is angiotension-2—induced acute PH. The data set can be described thus: Angiotensin-2-induced acute pulmonary hypertension in control rats. In kind it is in vivo. The conditions noted are these: inhalation.
For the next data set, the system named is cardiac proteins. The data set can be described thus: SNO-RAC proteomics of rat heart tissue. In kind it is in vivo, rats. The conditions noted are these: single oral gavage dose, hearts collected after 1 hour. Here is the method:
FIG. 12 is a graphical representation of proteomics analysis of rat heart tissue. A single dose of nitrite and NAC at neutral pH were administered by oral gavage to rats. Rats were sacrificed after 1 hour and the hearts were collected. Total RSNO sites were identified using the a SNO-RAC (resin assisted capture) protocol. Proteomics was performed using liquid chromatography-tandem mass spectrometry (LC-MS/MS) analysis.

Data set [9] is described as follows: Total S-nitrosothiols in blood after sublingual nitrite and NAC in mice. In kind it is in vivo. The conditions noted are these: 0.1 mg nitrite and 10 mg NAC. The protocol:
FIG. 14 is a graphical representation of the transfer of the SNOAC that is generated in the sublingual space to blood circulation in mice. The concentration of total S-nitrosothiols at 1, 30 min., and 60 min. was determined after mice were sublingually administered 0.1 mg nitrite and 10 mg NAC in 50 μL of water, generating SNOAC.
In this study, the sublingual and buccal cavity medication route of SNOAC generation and administration for acute dosing was first examined. A dose of NAC and sodium nitrite with 25 μL of water was placed under the tongue of mice or rats. Specifically, a dose of 0.1 mg of nitrite and 10 mg of NAC was placed under the tongue of the subject, blood was collected varying time points, and total S-nitrosothiols (SNO) were measured by a chemiluminescence method. […] As shown in FIG. 14 for mice and FIG. 4 for rats, SNOAC is generated in the buccal cavity and absorbed into circulation.

A short description of data set [10]: RSNO decomposition in water monitored by spectra. In kind it is physicochemical. The conditions noted are these: over 15 hours; from 15 mM sodium nitrite and 60 mM N-acetylcysteine in water. Here is the method:
FIG. 11 is a graphical representation of generation and decomposition of S-nitroso-N-acetylcysteine (RSNO). In the left panel, RSNO generation is show when 15 mM sodium nitrite is reacted with 60 mM N-acetylcysteine (RSH) in water. All nitrite is converted instantly to RSNO. In the right panel, RSNO decomposition is monitored by recording spectra at 1.5 hour intervals over 15 hours. Approximately 50% of the RSNO was decomposed over the 15 hours.
Nitrite is converted to […] by reacting with RSH in water. RSNOs have potent vasodilatory, anti-inflammatory, and antiplatelet activities. As shown by the comparison of generation of RSNO in FIG. 11, left panel, with degradation in FIG. 11, right panel, the instability of RSNO after preparation is a major hindrance to use them as NO donors to restore the NO bio-availability that decrease with aging and pathophysiological conditions of cardiovascular diseases. Therefore, RSNOs have proven easy to prepare, but not typically stable after preparation.

Protocol for eNOS^-/- mice: 15-week-old wild-type (WT) and eNOS^-/- mice were divided into 5 groups. (1) WT control, (2) eNOS^-/- control, (3) eNOS^-/-+nitrite, (4) eNOS^-/-+NAC, and (5) eNOS^-/-+nitrite+NAC. NAC was dissolved in the drinking water, and pH was adjusted to 7.0 to prevent initial nitrite reaction with NAC. The mice were given pharmacological doses of nitrite (50 mg/L) and NAC (500 mg/L) individually or in combination for 2 months.

Regarding nitric oxide [NO gas], in [1] (hypertensive rats), the “RVSP course after cessation of inhalation” value is “rapidly bounced back to baseline after cessation”. In addition, in [1] (hypertensive rats, 30 ppm inhaled for 5 minutes), the “RVSP during inhalation of NO gas” value is “rapid decrease in RVSP”.
As to `CC(=O)N[C@@H](CS)C(=O)O` [NAC, N-acetylcysteine], the “effect on RVSP of inhaled precursor molecules alone” value in data set [1] (hypertensive rats) is “no effect”. In addition, in [2], the “increase in plasma RSNOs” value is “no change”. Moreover, the MAP entry in the data set with normotensive rats [3] was “neither nitrite nor NAC alone altered the blood pressure”; in data set [5], “modestly decreased”; in data set [6] it was “no significant change”; in the data set with eNOS^-/- mice, “no significant change”. The “mean arterial pressure (MAP)” value in the data set on normotensive rats [4] is on record as “no change”.
Turning to `O=NO` [nitrite, sodium nitrite], the “effect on PH at higher doses” value in data set [1] (even at higher doses) is “No effect”. The “effect on RVSP of inhaled precursor molecules alone” value in [1] (hypertensive rats) was “no effect”. Also, the MAP entry in the data set on normotensive rats [3] is given as “neither nitrite nor NAC alone altered the blood pressure”; in data set [5], “no effect”; in data set [6] it was “no significant change”; in the data set with eNOS^-/- mice, “no significant change”. Moreover, the “mean arterial pressure (MAP)” value in the data set on normotensive rats [4] is recorded as “no change”.
On to `CC(=O)N[C@@H](CSN=O)C(=O)O` [SNOAC, S-nitroso-N-acetylcysteine], for which the plasma nitrite levels result in data set [7] (after sublingual SNOAC) is “no change”. Besides, the “total plasma S-nitrosothiols (SNO) over time” value in data set [7] (rats, sublingual) is “increased with increasing the time”. In [1] (control animals, baseline RVSP 30 mmHg), the “RVSP change in control animals” value is “did not change significantly”. Besides, in [1] (hypertensive rats), the “RVSP after another dose of aerosolized drug after 40 minutes” value is “sustained decrease in RVSP that was longer than after the initial dose”; the “RVSP course after cessation of inhalation” value was “slowly increased over the following 40 minutes, while still remaining lower than the baseline value”; the “time the RVSP decrease was sustained at the same level after cessation of drug” value turned out to be 5 min. In addition, in data set [1] (hypertensive rats, baseline RVSP 125 mmHg, inhalation for 5 minutes), the “RVSP after inhalation of aerosolized drug” value is 96 mmHg. Besides, the “angiotensin-2-induced acute PH” value in [8] was “significantly decreased”. Moreover, in the data set “SNOAC life span”, the life span result is “about 30 min”. In addition, in the data set with cardiac proteins, the “S-nitrosylation of cardiac proteins” value was “increased with increasing the dose of RSNO”. Besides, the “total S-nitrosothiols (SNO) over time” value in data set [9] was “increased with increasing the time”. Moreover, the RSNO decomposed result in data set [10] is listed as “Approximately 50%”.

The values are drawn from patent publication US20240382443A1, “GENERATION OF S-NITROSOACETYLCYSTEINE” (The UAB Research Foundation, priority 2023, published 2024).
